Common to all, as to type: physicochemical
Data set [1] can be described thus: Grinding experiments (strong grinding and solvent drop grinding, XRPD). The conditions noted are these: 2 minutes. The protocol: (§1) X-ray diffraction was performed on X-Ray powder diffractometer: Bruker D8 Advance; CuKα radiation (λ=1.5418 Å); Lynx eye detector; laboratory temperature 22-25° C.; PMMA specimen holder ring with silicon low background. Prior to analysis, the samples were gently ground by means of mortar and pestle in order to obtain a fine powder. The ground sample was adjusted into a cavity of the sample holder and the surface of the sample was smoothed by means of a cover glass.
(§2) • Scan range: 2-40 degrees 2-theta; • Scan mode: continuous; • Step size: 0.05 degrees; • Time per step: 0.5 s; • Sample spin: 30 rpm; • Sample holder: PMMA specimen holder ring with silicon low background. • All X-Ray Powder Diffraction peak values are calibrated with regard to standard silicon spiking in the sample. ssNMR Method:
Samples of Trilaciclib citrate Form TCT3 were subjected to strong grinding, and to solvent drop grinding in isopropanol, ethanol and water. Grinding was carried out on the samples alone, or in the presence of ethanol or water. In these experiments, about 20 mg of the sample is placed in a mortar and ground with a pestle for 2 minutes. The solvent, when used, as added to the crystalline material before grinding, in a volume of 10 microliters.

The nature of data set [2]: Thermal stability (heating up to 100° C., XRPD). The following applies: heating 100° C., 30 minutes. The protocol: as §1, §2
A sample of Trilaciclib citrate Form TCT3 was subjected to heating up to 100° C. for 30 minutes.

Data set [3] is described as follows: Storage stability at different relative humidities and temperatures, months (XRPD). The protocol:
as §1, §2
Samples of Trilaciclib citrate Form TCT3 were subjected to conditions of different relative humidities at different temperatures. XRPD analysis was performed on the samples after 2 months.
Form TCT3 of Trilaciclib citrate was also found to be stable for at least 2 months at 2-8° C. Moreover, Form TCT3 is stable for at least 3 months at room temperature and humidity.

A short description of data set [4]: Stability under all tested stress conditions (summary statement). The conditions noted are these: strong grinding, pressure of 2 tons, up to 100% RH for 7 days, up to 100° C.

Structures are written as SMILES. Structures can show the parent of a compound that is named as a salt.

On to `CN1CCN(c2ccc(Nc3ncc4cc5n(c4n3)C3(CCCCC3)CNC5=O)nc2)CC1` [Trilaciclib citrate Form TCT3, Trilaciclib citrate salt], for which the XRPD analysis results in data set [1] (solvent-drop grinding (ethanol), 10 microliters) was “No polymorphic conversion”; in data set [1] (solvent-drop grinding (isopropanol), 10 microliters), “No polymorphic conversion”; in data set [1] (solvent-drop grinding (water), 10 microliters), “No polymorphic conversion”; in data set [1] (strong grinding, no solvent), “No polymorphic conversion”. For the same compound, the “Result (XRPD analysis)” value in data set [2] was “No polymorphic conversion”. The “time for which the form is stable” value in data set [3] (at 2-8° C.) was “at least 2 months”; in data set [3] (at room temperature and humidity), “at least 3 months”. For the same compound, the “stability under stress conditions” value in data set [4] is given as “stable under all tested stress conditions”.
